Laboratory results: ChEMBL document CHEMBL1125408 (J Med Chem, 1992)
Calls of active or inactive are those of the source.

What was measured:
Cholinesterase [1] = biological target: T1, Cholinesterase (Homo sapiens, UniProt P06276); assay: Ratio of IC50 values obtained for BChE/ AChE
Acetylcholinesterase [2] = biological target: T2, Acetylcholinesterase (Homo sapiens, UniProt P22303)
Description: The compound was evaluated for the inhibition of human Acetylcholinesterase

Cholinesterase [3] = biological target: T1, Cholinesterase
Description: The compound was evaluated for the inhibition human of Butyrylcholinesterase

Rattus norvegicus [4] = organism: Rattus norvegicus
[5] = biological target: T3, Muscarinic acetylcholine receptor M2 (Mus musculus, UniProt Q9ERZ4); assay: biochemical
T3 sequence (Q9ERZ4 whole entry): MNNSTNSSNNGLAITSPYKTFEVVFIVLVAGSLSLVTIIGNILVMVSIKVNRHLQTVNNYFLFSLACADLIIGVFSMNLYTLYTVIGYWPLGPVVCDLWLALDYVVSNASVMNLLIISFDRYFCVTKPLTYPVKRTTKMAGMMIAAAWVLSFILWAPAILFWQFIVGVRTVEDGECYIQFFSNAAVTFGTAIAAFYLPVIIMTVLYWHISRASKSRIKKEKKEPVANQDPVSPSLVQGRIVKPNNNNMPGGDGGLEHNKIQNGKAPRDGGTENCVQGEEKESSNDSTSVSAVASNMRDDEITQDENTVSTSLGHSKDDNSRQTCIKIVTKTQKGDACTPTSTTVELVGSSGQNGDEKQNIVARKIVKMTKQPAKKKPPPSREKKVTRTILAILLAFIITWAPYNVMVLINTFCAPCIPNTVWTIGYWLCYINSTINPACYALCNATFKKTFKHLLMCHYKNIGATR
Description: Compound was evaluated for the competitive inhibition of [3H]methylscopolamine binding to muscarinic acetylcholine receptor M2 of mouse cerebral cortex

[6] = biological target: T4, Muscarinic acetylcholine receptor M1 (Mus musculus, UniProt P12657); assay: biochemical
T4 sequence (P12657 whole entry): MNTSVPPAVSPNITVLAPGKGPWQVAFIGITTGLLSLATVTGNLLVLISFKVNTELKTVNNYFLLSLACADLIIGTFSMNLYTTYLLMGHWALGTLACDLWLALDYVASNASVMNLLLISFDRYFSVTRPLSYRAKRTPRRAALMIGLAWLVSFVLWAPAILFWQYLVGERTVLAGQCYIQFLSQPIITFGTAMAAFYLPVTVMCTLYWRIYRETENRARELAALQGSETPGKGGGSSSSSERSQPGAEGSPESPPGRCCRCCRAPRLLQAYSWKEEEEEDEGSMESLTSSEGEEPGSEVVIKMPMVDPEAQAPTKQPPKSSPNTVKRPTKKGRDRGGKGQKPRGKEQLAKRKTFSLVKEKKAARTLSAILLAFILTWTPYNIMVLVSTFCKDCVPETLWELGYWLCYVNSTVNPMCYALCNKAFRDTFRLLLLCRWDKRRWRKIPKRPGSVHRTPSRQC
Description: Compound was evaluated for the competitive inhibition of [3H]pirenzepine binding to muscarinic acetylcholine receptor M1 of mouse cerebral cortex

[7] = biological target: T5, Muscarinic acetylcholine receptor M2 (Mus musculus) (UniProt Q9ERZ4); assay: Selectivity was defined as the ratio between M2-IC50/M1-IC50
T5 sequence (whole entry): T3 sequence (Q9ERZ4 whole entry)

Acetylcholinesterase [8] = biological target: T2, Acetylcholinesterase; remark: listed apart in the source
Description: Inhibition of human acetylcholinesterase-I

Cholinesterase [9] = biological target: T1, Cholinesterase; remark: listed apart in the source
Description: The compound was evaluated for the inhibition human of Butyrylcholinesterase I

[10] = biological target: T3, Muscarinic acetylcholine receptor M2; assay: biochemical; remark: listed apart in the source
Description: Compound was evaluated for the competitive inhibition of [3H]methylscopolamine binding to Muscarinic acetylcholine receptor M2 of mouse cerebral cortex

[11] = biological target: T4, Muscarinic acetylcholine receptor M1; assay: biochemical; remark: listed apart in the source
Description: Compound was evaluated for the competitive inhibition of [3H]pirenzepine binding to Muscarinic acetylcholine receptor M1 of mouse cerebral cortex

Rattus norvegicus [12] = organism: Rattus norvegicus; assay: Concentration required to potentiate the contraction of isolated rat ileum produced by 1*10e-7 M ACh by 20 percent; IA= inactive; format: functional
Rattus norvegicus [13] = organism: Rattus norvegicus; assay: Concentration required to potentiate the contraction of isolated rat ileum produced by 1*10e-7 M ACh by 20 percent; IA=Inactive; format: functional
[14] = NMS/OXO-M values are calculated from the ratio of the respective apparent Ki values
Mus musculus [15] = organism: Mus musculus
Mus musculus [16] = organism: Mus musculus; remark: listed apart in the source
Description: Compound was evaluated for the binding affinity by displacing [3H]methylscopolamine ([3H]-NMS) from mouse cerebral cortex tissue.

T1 sequence (P06276 whole entry): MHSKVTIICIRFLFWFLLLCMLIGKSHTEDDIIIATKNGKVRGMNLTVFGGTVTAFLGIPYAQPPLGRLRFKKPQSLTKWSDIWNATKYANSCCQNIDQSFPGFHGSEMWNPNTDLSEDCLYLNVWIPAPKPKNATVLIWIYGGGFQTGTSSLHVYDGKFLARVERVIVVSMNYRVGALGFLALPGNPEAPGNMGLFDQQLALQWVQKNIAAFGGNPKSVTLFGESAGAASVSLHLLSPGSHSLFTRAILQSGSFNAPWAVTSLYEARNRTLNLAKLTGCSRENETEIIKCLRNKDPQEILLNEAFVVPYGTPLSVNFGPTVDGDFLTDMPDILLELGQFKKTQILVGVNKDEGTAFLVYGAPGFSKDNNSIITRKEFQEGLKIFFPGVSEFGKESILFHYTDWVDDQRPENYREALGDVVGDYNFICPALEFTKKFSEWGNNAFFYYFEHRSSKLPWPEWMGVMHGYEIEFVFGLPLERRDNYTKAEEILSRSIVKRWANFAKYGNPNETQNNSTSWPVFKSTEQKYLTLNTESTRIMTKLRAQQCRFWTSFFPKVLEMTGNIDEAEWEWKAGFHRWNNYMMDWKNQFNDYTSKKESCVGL
T2 sequence (P22303 whole entry): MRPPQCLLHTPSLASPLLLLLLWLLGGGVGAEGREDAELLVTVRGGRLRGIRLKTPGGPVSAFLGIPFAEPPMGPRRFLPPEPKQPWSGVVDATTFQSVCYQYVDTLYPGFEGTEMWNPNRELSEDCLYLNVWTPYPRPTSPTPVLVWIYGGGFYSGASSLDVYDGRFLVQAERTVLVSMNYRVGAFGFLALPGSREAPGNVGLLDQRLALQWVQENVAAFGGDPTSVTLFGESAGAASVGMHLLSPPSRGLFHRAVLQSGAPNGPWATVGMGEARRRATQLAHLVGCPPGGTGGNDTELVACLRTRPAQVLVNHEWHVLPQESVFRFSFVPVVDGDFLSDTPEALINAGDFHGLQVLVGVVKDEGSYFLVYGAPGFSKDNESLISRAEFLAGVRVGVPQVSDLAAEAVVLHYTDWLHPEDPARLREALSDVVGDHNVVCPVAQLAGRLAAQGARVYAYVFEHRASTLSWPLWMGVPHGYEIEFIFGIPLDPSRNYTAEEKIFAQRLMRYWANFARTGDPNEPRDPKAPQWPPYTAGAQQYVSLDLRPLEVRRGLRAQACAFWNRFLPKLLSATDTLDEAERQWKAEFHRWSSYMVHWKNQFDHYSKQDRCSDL

| Structure (SMILES) | IC50 (Acetylcholinesterase [2]) [nM] | Ileal activity (Rattus norvegicus [4]) [µM] | IC50 [5] [nM] | IC50 [6] [nM] | IC50 (Acetylcholinesterase [8]) [nM] | IC50 (Cholinesterase [9]) [nM] | IC50 [10] [nM] | IC50 [11] [nM] | further results |
| --- | --- | --- | --- | --- | --- | --- | --- | --- | --- |
| CN(C)Cc1ccc(CSCCNc2cc(NCCSCc3ccc(CN(C)C)o3)c([N+](=O)[O-])cc2[N+](=O)[O-])o1 | 28 | <0.05 | 590 | 490 | – | – | – | – | Ratio (Cholinesterase [1]): 0.89; IC50 (Cholinesterase [3]): 25 nM |
| CN(C)Cc1ccc(CSCCN/C=C(/NCCSCc2ccc(CN(C)C)o2)[N+](=O)[O-])o1 | 74 | <0.1 | 500 | 900 | – | – | – | – | Ratio (Cholinesterase [1]): 18; Ratio [7]: 0.55; IC50 (Cholinesterase [3]): 1300 nM |
| CN(C)Cc1ccc(CSCCCCCCCCCSCc2ccc(CN(C)C)o2)o1 | 460 | <0.1 | 400 | 560 | – | – | – | – | Ratio (Cholinesterase [1]): 2.2; Ratio [7]: 0.71; IC50 (Cholinesterase [3]): 1000 nM |
| CN(C)Cc1ccc(CSCCCCCSCc2ccc(CN(C)C)o2)o1 | – | <0.1 | – | – | 900 | 3600 | 520 | 810 | – |
| CN(C)Cc1ccc(CSCc2ccc(CN(C)C)o2)o1 | – | – | – | – | 44000 | – | – | – | – |
| CN(C)Cc1ccc(CSCCCCCCSCc2ccc(CN(C)C)o2)o1 | – | – | – | – | 740 | 2900 | 580 | 540 | Ileal activity (Rattus norvegicus [12]): inactive |
| CN(C)Cc1ccc(CSCC/N=C/NCCSCc2ccc(CN(C)C)o2)o1 | – | – | – | – | 3000 | – | – | – | – |
| CN(C)Cc1ccc(CSCCCCCCCCCCSCc2ccc(CN(C)C)o2)o1 | 1300 | – | – | – | – | – | – | – | – |
| CN(C)Cc1ccc(CSCc2ccc(CSCc3ccc(CN(C)C)o3)cc2)o1 | – | – | – | – | 260 | 2700 | 550 | 540 | Ileal activity (Rattus norvegicus [12]): inactive |
| CN(C)Cc1ccc(CSCCNC(=O)NCCSCc2ccc(CN(C)C)o2)o1 | – | – | – | – | 48000 | – | – | – | – |
| CN(C)Cc1ccc(CSCCCSCc2ccc(CN(C)C)o2)o1 | – | <0.1 | – | – | 330 | 4100 | 1500 | 1100 | – |
| CN(C)Cc1ccc(CSCCSCc2ccc(CN(C)C)o2)o1 | – | <0.1 | – | – | 500 | 4300 | 1400 | 1100 | – |
| CNC(=O)Oc1ccc2c(c1)[C@]1(C)CCN(C)[C@@H]1N2C [PHYSOSTIGMINE] | – | <0.005 | 160000 | 37000 | – | – | – | – | – |
| CN(C)Cc1ccc(CSCCCCCCCCSCc2ccc(CN(C)C)o2)o1 | 470 | <0.1 | 540 | 310 | – | – | – | – | Ratio (Cholinesterase [1]): 4; Ratio [7]: 1.8; IC50 (Cholinesterase [3]): 1900 nM |
| CN(C)Cc1ccc(CSCc2ccc(-c3ccc(CSCc4ccc(CN(C)C)o4)cc3)cc2)o1 | – | <0.01 | – | – | 180 | 1300 | 1600 | 680 | – |
| CN(C)Cc1ccc(CSCCNC(=NC#N)NCCSCc2ccc(CN(C)C)o2)o1 | – | <0.01 | – | – | 290 | 2400 | 470 | 660 | – |
| CN(C)Cc1ccc(CSCc2cccc(CSCc3ccc(CN(C)C)o3)c2)o1 | – | – | – | – | 1500 | – | – | – | – |
| CN(C)Cc1ccc(CSCCCCCCCSCc2ccc(CN(C)C)o2)o1 | 610 | – | 710 | 410 | – | – | – | – | Ratio (Cholinesterase [1]): 3.1; Ratio [7]: 1.7; Ileal activity (Rattus norvegicus [13]): inactive; IC50 (Cholinesterase [3]): 1900 nM |
| CN(C)Cc1ccc(CSCc2ccccc2CSCc2ccc(CN(C)C)o2)o1 | – | – | – | – | 9000 | – | – | – | – |
| CN(C)Cc1ccc(CSCCCCSCc2ccc(CN(C)C)o2)o1 | – | <1 | – | – | 210 | 3100 | 2200 | 630 | Ratio [14]: 17; Ki (Mus musculus [15]): 1200 nM; Ki (Mus musculus [16]): 20000 nM |
